Biological target: T1, human Nav1.8 (Homo sapiens, UniProt Q9Y5Y9)
T1 construct: expressed in transfected cells
Test: In vitro inhibition of Nav1.8, manual patch clamp on HEK293 cells stably expressing human Nav1.8
Assay type: cell-based
Details: human Nav1.8, manual patch clamp; for inhibition at 0.1 µM: HEK293, 100 nM, read-out: Inhibitory activity (inhibition/% at 100 nM concentration)
Experimental: Bioactivity Test 1: In Vitro Inhibition of Nav1.8 by the Compound
By using a manual patch clamp on HEK293 cells stably expressing human Nav1.8, currents on Nav1.8 before and after administration of the compound were compared after the currents on Nav1.8 were stable, to obtain the effect of the compound on the Nav1.8 channel.
The to-be-tested compound was dissolved in DMSO to prepare a 9 mM stock solution, which was taken and dissolved in extracellular fluid at a desired concentration on the day of testing. The extracellular fluid included the following ingredients (mM): NaCl, 137; KCl, 4; CaCl2, 1.8; MgCl2, 1; HEPES, 10; glucose, 10; and pH 7.4 (NaOH titration). All reagents were purchased from Sigma (St. Louis, MO).
The cells were clamped at −80 mV and depolarized with a sustained 10 ms square wave to 10 mV to obtain a current on Nav1.8. This process was repeated every 5 seconds. A maximum current caused by the square wave was detected. After the current is stable, the to-be-tested compound (dissolved in the extracellular fluid at the desired concentration) was perfused. After the current is stable, the strength of blocking Nav1.8 by the compound was calculated based on the currents before and after perfusion of the compound. pCLAMP 10 (Molecular Devices, Union City, CA) was used. That the current is stable means that the current changes over time within a limited range.

T1 sequence (Q9Y5Y9 whole entry): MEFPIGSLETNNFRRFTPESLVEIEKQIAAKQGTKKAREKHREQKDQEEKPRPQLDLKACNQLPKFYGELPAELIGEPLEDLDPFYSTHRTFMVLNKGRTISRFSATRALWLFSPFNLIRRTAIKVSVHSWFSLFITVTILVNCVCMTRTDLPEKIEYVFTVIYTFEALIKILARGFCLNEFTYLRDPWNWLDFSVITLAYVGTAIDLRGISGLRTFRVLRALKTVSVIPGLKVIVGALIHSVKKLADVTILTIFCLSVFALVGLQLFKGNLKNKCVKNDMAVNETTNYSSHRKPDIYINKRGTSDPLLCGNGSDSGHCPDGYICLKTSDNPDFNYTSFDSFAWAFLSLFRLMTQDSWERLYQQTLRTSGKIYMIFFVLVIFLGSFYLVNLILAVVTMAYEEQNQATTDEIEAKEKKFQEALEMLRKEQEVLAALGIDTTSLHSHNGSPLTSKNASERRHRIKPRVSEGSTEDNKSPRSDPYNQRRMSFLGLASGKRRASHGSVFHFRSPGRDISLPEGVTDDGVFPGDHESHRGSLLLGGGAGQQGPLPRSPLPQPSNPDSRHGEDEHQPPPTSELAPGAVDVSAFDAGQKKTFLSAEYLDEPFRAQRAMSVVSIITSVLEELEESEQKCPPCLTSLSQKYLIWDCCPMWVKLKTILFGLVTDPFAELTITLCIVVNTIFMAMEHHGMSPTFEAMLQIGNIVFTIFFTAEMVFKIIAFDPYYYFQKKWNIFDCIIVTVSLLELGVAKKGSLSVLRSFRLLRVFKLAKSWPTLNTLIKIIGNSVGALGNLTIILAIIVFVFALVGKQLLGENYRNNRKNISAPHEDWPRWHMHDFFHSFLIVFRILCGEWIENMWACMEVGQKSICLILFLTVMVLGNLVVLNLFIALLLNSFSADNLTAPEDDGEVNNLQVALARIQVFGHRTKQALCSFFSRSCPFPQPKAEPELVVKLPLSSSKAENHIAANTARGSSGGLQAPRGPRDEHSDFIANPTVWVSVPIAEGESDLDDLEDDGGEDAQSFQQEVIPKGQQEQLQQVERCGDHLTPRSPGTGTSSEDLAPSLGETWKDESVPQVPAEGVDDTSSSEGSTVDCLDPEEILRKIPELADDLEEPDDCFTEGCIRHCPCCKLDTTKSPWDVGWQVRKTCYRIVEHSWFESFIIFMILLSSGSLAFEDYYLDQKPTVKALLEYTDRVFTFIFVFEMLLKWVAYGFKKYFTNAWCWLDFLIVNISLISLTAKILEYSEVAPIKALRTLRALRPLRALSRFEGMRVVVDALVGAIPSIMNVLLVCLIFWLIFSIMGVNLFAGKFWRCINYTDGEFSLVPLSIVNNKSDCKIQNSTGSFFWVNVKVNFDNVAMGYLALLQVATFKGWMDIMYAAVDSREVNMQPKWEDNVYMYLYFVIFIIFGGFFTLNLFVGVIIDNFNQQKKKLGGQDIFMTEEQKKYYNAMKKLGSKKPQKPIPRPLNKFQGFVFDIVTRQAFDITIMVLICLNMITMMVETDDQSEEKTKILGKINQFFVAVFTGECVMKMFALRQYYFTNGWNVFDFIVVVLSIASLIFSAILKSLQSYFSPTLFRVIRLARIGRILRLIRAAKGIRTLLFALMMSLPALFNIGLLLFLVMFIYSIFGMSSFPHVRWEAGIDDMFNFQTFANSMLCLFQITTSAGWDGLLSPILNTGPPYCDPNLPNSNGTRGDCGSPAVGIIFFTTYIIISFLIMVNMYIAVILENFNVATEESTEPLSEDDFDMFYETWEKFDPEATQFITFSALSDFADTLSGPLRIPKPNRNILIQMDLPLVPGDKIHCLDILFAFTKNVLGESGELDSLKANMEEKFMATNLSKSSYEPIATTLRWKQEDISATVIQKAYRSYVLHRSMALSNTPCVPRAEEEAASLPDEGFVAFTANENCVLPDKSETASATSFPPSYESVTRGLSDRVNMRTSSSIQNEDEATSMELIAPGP

In the case of COc1c([C@H]2C(C(=O)Nc3ccnc(OC[C@H](O)CO)c3)O[C@]3(C(F)(F)F)CC[C@]23C)ccc(F)c1F (relative stereo) [Example 96, rel-(1R,3R,4S,5R)-4-(3,4-difluoro-2-methoxyphenyl)-N-(2-(R)-2,3-dihydroxypropoxypyridin-4-yl)-5-methyl-1-trifluoromethyl-2-oxabicyclo[3.2.0]heptane-3-carboxamide], the inhibition at 0.1 µM is reported as no less than 50%.

Work on COc1c([C@H]2[C@H](C(=O)Nc3ccc(F)c(S(=O)(=O)Nc4cscn4)c3)O[C@]3(C(F)(F)F)CC[C@]23C)ccc(F)c1F (relative stereo) [Example 92, rel-(1R,3R,4S,5R)-4-(3,4-difluoro-2-methoxyphenyl)-N-(4-fluoro-3-(N-(thiazol-4-yl)aminosulfonyl)phenyl)-5-methyl-1-trifluoromethyl-2-oxabicyclo[3.2.0]heptane-3-carboxamide] yielded an inhibition at 0.1 µM of no less than 50%.

Compound COc1c([C@H]2[C@H](C(=O)Nc3ccc4c(c3)C(=O)OOC4N)O[C@@](C)(C(F)(F)F)[C@H]2C)ccc(F)c1F (relative stereo) [Example 13, rel-(2R,3S,4S,5R)—N-(1-amino-4-oxo-3H-benzo[2,1-d][1,2]dioxine-6-yl)-3-(3,4-difluoro-2-methoxyphenyl)-4,5-dimethyl-5-(trifluoromethyl)tetrahydrofuran-2-carboxamide] has an inhibition at 0.1 µM of no less than 50%.

COc1c(C2[C@H](C(=O)Nc3ccnc(S(=O)(=O)NCC(F)(F)F)c3)O[C@@](C)(C(F)(F)F)[C@H]2C)ccc(F)c1F (relative stereo) [Example 84, rel-(2R,3S,4S,5R)-3-(3,4-difluoro-2-methoxyphenyl)-4,5-dimethyl-N-(2-(N-(2,2,2-trifluoroethyl)sulfamoyl)pyridin-4-yl)-5-trifluoromethyl tetrahydrofuran-2-carboxamide] was tested, and the inhibition at 0.1 µM was no less than 50%.

For COc1c([C@H]2[C@H](C(=O)Nc3ccnc(N4CCN(C)CC4=O)c3)O[C@]3(C(F)(F)F)CC[C@]23C)ccc(F)c1F (relative stereo) [Example 100, rel-(1R,3R,4S,5R)-4-(3,4-difluoro-2-methoxyphenyl)-5-methyl-N-(2-(4-methyl-2-oxopiperazin-1-yl)pyridin-4-yl)-1-(trifluoromethyl)-2-oxabicyclo[3.2.0]heptane-3-carboxamide], the inhibition at 0.1 µM was no less than 50%.

CNS(=O)(=O)c1cc(NC(=O)[C@@H]2O[C@]3(C(F)(F)F)CC[C@]3(C)[C@H]2c2ccc(F)c(F)c2OC)ccn1 (relative stereo) [Example 88, rel-(1R,3R,4S,5R)-4-(3,4-difluoro-2-methoxyphenyl)-5-methyl-N-(2-(N-methylsulfamoyl)pyridin-4-yl)-1-(trifluoromethyl)-2-oxabicyclo[3.2.0]heptane-3-carboxamide] gave an inhibition at 0.1 µM of no less than 50%.

In the case of COc1c(C2C(C(=O)Nc3ccc(C(N)=O)c(C(N)=O)c3)OC3(C(F)(F)F)CCC23C)ccc(F)c1F [Example 86, rel-4-((1R,3R,4S,5R)-4-(3,4-difluoro-2-methoxyphenyl)-5-methyl-1-(trifluoromethyl)-2-oxabicyclo[3.2.0]heptane-3-formylamino)phthalamide], the inhibition at 0.1 µM is reported as no less than 50%.

With “rel-(2R,3S,4S,5R)-3-(3,4-difluoro-2-methoxyphenyl)-4,5-dimethyl-N-(4-oxo-3H-quinazolin-6-yl)-5-(trifluoromethyl)tetrahydrofuran-2-carboxamide [Example 4]” the “Inhibitory activity (inhibition/% at 100 nM concentration)” value (100 nM) was “A (A ≥ 50)”.

With COc1c([C@H]2[C@H](C(=O)Nc3ccc(=O)[nH]n3)O[C@@](C)(C(F)(F)F)[C@H]2C)ccc(F)c1F (relative stereo) [Example 27, rel-(2R,3S,4S,5R)-3-(3,4-difluoro-2-methoxyphenyl)-4,5-dimethyl-N-(6-oxo-1H-1,2-dioxine-3-yl)-5-(trifluoromethyl)tetrahydrofuran-2-carboxamide] the inhibition at 0.1 µM was no less than 50%.

With COc1c([C@H]2C(C(=O)Nc3ccnc(S(C)(=N)=O)c3)O[C@]3(C(F)(F)F)CC[C@]23C)ccc(F)c1F (relative stereo) [Example 93, rel-(1R,3R,4S,5R)-4-(3,4-difluoro-2-methoxyphenyl)-5-methyl-N-(2-(S-methylsulfoximine)pyridin-4-yl)-1-(trifluoromethyl)-2-oxabicyclo[3.2.0]heptane-3-carboxamide] the inhibition at 0.1 µM was no less than 50%.

Work on COc1c([C@H]2[C@H](C(=O)Nc3ccc4c(c3)C(=O)NC4)O[C@@](C)(C(F)(F)F)[C@H]2C)ccc(F)c1F (relative stereo) [Example 1, rel-(2R,3S,4S,5R)-3-(3,4-difluoro-2-methoxyphenyl)-4,5-dimethyl-N-(3-oxoisoindolin-5-yl)-5-(trifluoromethyl)tetrahydrofuran-2-carboxamide] yielded an inhibition at 0.1 µM of no less than 50%.

COc1c(C2C(C(=O)Nc3cc(F)c(C(N)=O)c(C(N)=O)c3)OC(C)(C(F)(F)F)C2C)ccc(F)c1F [Example 80, rel-5-((2R,3S,4S,5R)-3-(3,4-difluoro-2-methoxyphenyl)-4,5-dimethyl-5-(trifluoromethyl)tetrahydrofuran-2-carboxamide)-3-fluorophthalic amine] showed an inhibition at 0.1 µM of no less than 50%.

Compound COc1c([C@H]2[C@H](C(=O)Nc3ccc4c(c3)CNC4=O)O[C@@](C)(C(F)(F)F)[C@H]2C)ccc(F)c1F (relative stereo) [Example 8, rel-(2R,3S,4S,5R)-3-(3,4-difluoro-2-methoxyphenyl)-4,5-dimethyl-N-(1-oxo-2,3-dihydro-1H-isoindol-5-yl)-5-(trifluoromethyl)tetrahydrofuran-2-carboxamide] has an inhibition at 0.1 µM of no less than 50%.

Work on CN=S(C)(=O)c1cc(NC(=O)C2O[C@]3(C(F)(F)F)CC[C@]3(C)[C@H]2c2ccc(F)c(F)c2OC)ccn1 (relative stereo) [Example 94, rel-(1R,3R,4S,5R)-4-(3,4-difluoro-2-methoxyphenyl)-N-(2-(N,S-dimethylsulfonyl)pyridin-4-yl)-5-methyl-1-(trifluoromethyl)-2-oxabicyclo[3.2.0]heptane-3-carboxamide] yielded an inhibition at 0.1 µM of no less than 50%.

COc1c([C@H]2[C@H](C(=O)Nc3ccc4c(c3)S(=O)(=O)NC4)O[C@@](C)(C(F)(F)F)[C@H]2C)ccc(F)c1F (relative stereo) [Example 9, rel-(2R,3S,4S,5R)-3-(3,4-difluoro-2-methoxyphenyl)-N-(1,1-dioxo-2,3-dihydrobenzo[d]isothiazol-6-yl)-4,5-dimethyl-5-(trifluoromethyl)tetrahydrofuran-2-carboxamide] showed an inhibition at 0.1 µM of no less than 50%.

With COc1c([C@H]2[C@H](C(=O)Nc3ccc4o[nH]c(=O)c4c3)O[C@@](C)(C(F)(F)F)[C@H]2C)ccc(F)c1F (relative stereo) [Example 5, rel-(2R,3S,4S,5R)-3-(3,4-difluoro-2-methoxyphenyl)-4,5-dimethyl-N-(3-oxo-2H-benzo[d]isoxazol-5-yl)-5-(trifluoromethyl)tetrahydrofuran-2-carboxamide] the inhibition at 0.1 µM was no less than 50%.

COc1c([C@H]2[C@H](C(=O)Nc3ccc(C(N)=O)c(C(N)=O)c3)O[C@@](C)(C(F)(F)F)[C@H]2C)ccc(F)c1F (relative stereo) [Example 30, rel-(2R,3S,4S,5R)-4-({[3-(3,4-difluoro-2-methoxyphenyl)-4,5-dimethyl-5-(trifluoromethyl)tetrahydrofuran-2-yl]carbonyl}amino)benzene-1,2-dicarboxamide] showed an inhibition at 0.1 µM of no less than 50%.

Source: patent US20260356823A1, “SODIUM CHANNEL REGULATOR AND USE THEREOF” (SHANGHAI HUILUN PHARMACEUTICAL CO., LTD., priority 2022, published 2026)
